Assay [1] relates to SNU-16. Nature of the assay: Cell SNU-16 assay. In kind it is cell-based. The settings on record: Homo sapiens, SNU-16, SNU-16 cells.
Assay [2] deals with FGFR2 (Homo sapiens (Human), UniProt P21802). Nature of the assay: Biochemical FGFR2 Caliper assay.
Sequence of FGFR2 (P21802 22-821): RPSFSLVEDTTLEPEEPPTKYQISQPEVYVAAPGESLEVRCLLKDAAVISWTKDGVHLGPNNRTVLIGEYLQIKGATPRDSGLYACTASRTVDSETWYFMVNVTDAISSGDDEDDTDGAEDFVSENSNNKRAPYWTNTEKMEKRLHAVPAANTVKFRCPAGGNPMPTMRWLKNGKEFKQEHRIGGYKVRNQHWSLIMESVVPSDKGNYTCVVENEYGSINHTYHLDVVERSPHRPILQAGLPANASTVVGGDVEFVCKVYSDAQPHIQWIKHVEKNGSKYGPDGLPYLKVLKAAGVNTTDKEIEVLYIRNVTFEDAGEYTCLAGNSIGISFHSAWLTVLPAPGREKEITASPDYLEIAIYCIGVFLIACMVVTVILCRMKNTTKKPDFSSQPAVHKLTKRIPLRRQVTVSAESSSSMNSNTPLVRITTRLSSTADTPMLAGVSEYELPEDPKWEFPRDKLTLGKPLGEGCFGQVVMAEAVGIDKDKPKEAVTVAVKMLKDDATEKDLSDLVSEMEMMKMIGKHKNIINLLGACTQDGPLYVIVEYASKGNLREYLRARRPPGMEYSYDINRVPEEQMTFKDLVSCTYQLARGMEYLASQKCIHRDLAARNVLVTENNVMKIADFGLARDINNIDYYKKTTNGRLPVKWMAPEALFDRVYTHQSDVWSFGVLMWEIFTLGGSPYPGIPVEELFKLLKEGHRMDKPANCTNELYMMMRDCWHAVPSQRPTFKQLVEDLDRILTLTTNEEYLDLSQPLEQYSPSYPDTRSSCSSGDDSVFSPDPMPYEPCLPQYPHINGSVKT

As a reminder, the IC50 is the concentration that inhibits the measured activity by half. Lower therefore signals greater potency in that assay. For `C#Cc1cc(C)c(-c2c(C3=CC[C@@H](C(=O)N4CCCC4)CC3)c3c(N)ncnc3n2C)cn1` (single isomer, unassigned) [Example 1142], the IC50 is at most 100 nM in assay [1] and below 100 nM in assay [2].

`C#Cc1ncc(-c2c(C3=CC[C@@H](C(=O)N4CCCC4)CC3)c3c(C)ncnc3n2C)c(C)n1` (single isomer, unassigned) [Example 1166]: the 50% inhibitory concentration (IC50) was at most 100 nM in assay [1] and below 100 nM in assay [2].

Take `C#Cc1ncc(-c2c(C3=CC[C@H](C(=O)N4CCCC4)CC3)c3c(C)ncnc3n2C)c(C)n1` (single isomer, unassigned) [Example 1169]: the IC50 is at most 100 nM in assay [1] and below 100 nM in assay [2].

For the compound `C#Cc1cc(C)c(-c2c(C3=CC[C@@H](C(=O)N4CCCC4)CC3)c3c(C)ncnc3n2C)cn1` (single isomer, unassigned) [Example 1199], the IC50 in assay [1] is at most 100 nM; in assay [2], below 100 nM.

Consider `C#Cc1cc(C)c(-c2c(C3=CC[C@H](C(=O)N4CCCC4)CC3)c3c(C)ncnc3n2C)cn1` (single isomer, unassigned) [Example 1201], for which the values for the IC50 in assay [1] and in assay [2] were at most 100 nM and below 100 nM, respectively.

Take `C#Cc1ccc(-c2c(C3=CC[C@H](C(=O)N4CCC[C@H]4COC)CC3)c3c(N)ncnc3n2C)c(C)n1` (single isomer, unassigned) [Example 1204]: the values for the IC50 in assay [1] and in assay [2] were at most 100 nM and below 100 nM, respectively.

On to `C#Cc1cc(C)c(-c2c(C3=CC[C@H](C(=O)N4CCC[C@H]4COC)CC3)c3c(N)ncnc3n2C)cn1` (single isomer, unassigned) [Example 1205], for which the IC50 in assay [1] and in assay [2] was 250 to 1000 nM in each case.

Take `C#Cc1ccc(-c2c(C3=CC[C@H](C(=O)N4CCCC4)CC3)c3cncnc3n2C)c(C)n1` (single isomer, unassigned) [Example 1207]: the half-maximal inhibitory concentration (IC50) in assay [1] and in assay [2] was 1000 to 100000 nM each time.

As for `C#Cc1ccc(-c2c(C3=CC[C@@H](C(=O)N4CCCC4)CC3)c3cncnc3n2C)c(C)n1` (single isomer, unassigned) [Example 1208], the half-maximal inhibitory concentration (IC50) lay within 250 to 1000 nM in assay [1] and 1000 to 100000 nM in assay [2].

For `C#Cc1cc(C)c(-c2c(C3=CC[C@@H](C(=O)N4CCC[C@@H]4C)CC3)c3c(N)ncnc3n2C)cn1` (single isomer, unassigned) [Example 1210], the IC50 in assay [1] is at most 100 nM; in assay [2], below 100 nM.

With `C#Cc1ccc(-c2c(C3=CC[C@@H](C(=O)N4CCC[C@H]4COC)CC3)c3c(N)ncnc3n2C)c(C)n1` (single isomer, unassigned) [Example 1211], the results for the 50% inhibitory concentration (IC50) in assay [1] and in assay [2] were 100 to 250 nM and below 100 nM, respectively.

Regarding `C#Cc1cc(C)c(-c2c(C3=CC[C@@H](C(=O)N4CCC[C@H]4COC)CC3)c3c(N)ncnc3n2C)cn1` (single isomer, unassigned) [Example 1212], the 50% inhibitory concentration (IC50) in assay [1] is 100 to 250 nM; in assay [2] it was below 100 nM.

As to `C#Cc1cc(C)c(-c2c(C3=CC[C@@H](C(=O)N4CCC[C@H]4C)CC3)c3c(N)ncnc3n2C)cn1` (single isomer, unassigned) [Example 1219], the IC50 in assay [1] is at most 100 nM; in assay [2], below 100 nM.

As for `C#Cc1ccc(-c2c(C3=CC[C@@H](C(=O)N4CCC[C@@H]4C#C)CC3)c3c(N)ncnc3n2C)c(C)n1` (single isomer, unassigned) [Example 1229], the IC50 is at most 100 nM in assay [1] and below 100 nM in assay [2].

`C#Cc1ccc(-c2c(C3=CC[C@@H](C(=O)N4CCC[C@H]4C#C)CC3)c3c(N)ncnc3n2C)c(C)n1` (single isomer, unassigned) [Example 1230]: the IC50 in assay [1] was at most 100 nM; in assay [2], below 100 nM.

As to `C#Cc1cc(C)c(-c2c(C3=CC[C@@H](C(=O)N4CCC[C@H]4CO)CC3)c3c(N)ncnc3n2C)cn1` (single isomer, unassigned) [Example 1231], the IC50 in assay [1] was at most 100 nM; in assay [2], below 100 nM.

Regarding `C#Cc1ccc(-c2c(C3=CC[C@@H](C(=O)N4CCC[C@H]4C#N)CC3)c3c(N)ncnc3n2C)c(C)n1` (single isomer, unassigned) [Example 1235], the results for the IC50 in assay [1] and in assay [2] were at most 100 nM and below 100 nM, respectively.

For `C#Cc1cc(C)c(-c2c(C3=CC[C@H](C(=O)N4CCCC45COC5)CC3)c3c(N)ncnc3n2C)cn1` (single isomer, unassigned) [Example 1238], the concentration for half-maximal inhibition (IC50) in assay [1] was 100 to 250 nM; in assay [2], 250 to 1000 nM.

In the case of `C#Cc1cc(C)c(-c2c(C3=CC[C@@H](C(=O)N4CCCC45COC5)CC3)c3c(N)ncnc3n2C)cn1` (single isomer, unassigned) [Example 1239], the 50% inhibitory concentration (IC50) was at most 100 nM in assay [1] and below 100 nM in assay [2].

In the case of `C#Cc1cc(C)c(-c2c(C3=CC[C@H](C(=O)N4CCCC4=O)CC3)c3c(N)ncnc3n2C)cn1` (single isomer, unassigned) [Example 1240], the 50% inhibitory concentration (IC50) in assay [1] and in assay [2] was 100 to 250 nM each time.

In the case of `C#Cc1cc(C)c(-c2c(C3=CC[C@@H](C(=O)N4CCCC4=O)CC3)c3c(N)ncnc3n2C)cn1` (single isomer, unassigned) [Example 1241], the results for the half-inhibitory concentration (IC50) in assay [1] and in assay [2] were at most 100 nM and below 100 nM, respectively.

On to `C#Cc1ncc(-c2c(C3=CC[C@@H](C(=O)N4CCCC4)CC3)c3c(N)ncnc3n2C)c(C)c1F` (single isomer, unassigned) [Example 1329], for which the 50% inhibitory concentration (IC50) in assay [1] was in the range of 100 to 250 nM; in assay [2], 250 to 1000 nM.

`C#Cc1ncc(-c2c(C3=CC[C@H](C(=O)N4CCCC4)CC3)c3c(N)ncnc3n2C)c(C)c1F` (single isomer, unassigned) [Example 1330]: the half-maximal inhibitory concentration (IC50) in assay [1] was at most 100 nM; in assay [2], below 100 nM.

Consider `C#Cc1ncc(-c2c(-c3ccc(C(=O)N4CCC[C@H]4C#C)cc3)c3c(N)ncnc3n2C)c(C)c1F` (single isomer, unassigned) [Example 1331], for which the figures for the IC50 in assay [1] and in assay [2] were at most 100 nM and below 100 nM, respectively.

In the case of `C#Cc1ncc(-c2c(-c3ccc(C(=O)N4CCC[C@@H]4C#C)cc3)c3c(N)ncnc3n2C)c(C)c1F` (single isomer, unassigned) [Example 1332], the half-inhibitory concentration (IC50) was at most 100 nM in assay [1] and below 100 nM in assay [2].

In the case of `C=C(C)C(=O)Nc1ccc(-c2c(C3=CC[C@@]4(CC3)Cc3ccc(C)nc3C4=O)c3c(N)ncnc3n2C)cc1` (single isomer, unassigned) [Example 1366], the half-inhibitory concentration (IC50) in assay [1] and in assay [2] was 1000 to 100000 nM in each case.

With `C=C(C)C(=O)Nc1ccc(-c2c(C3=CC[C@]4(CC3)Cc3ccc(C)nc3C4=O)c3c(N)ncnc3n2C)cc1` (single isomer, unassigned) [Example 1367], the half-inhibitory concentration (IC50) is at most 100 nM in assay [1] and below 100 nM in assay [2].

For the compound `C=C(C)C(=O)Nc1cc(C)c(-c2c(C3=CC[C@@H](C(=O)N4CCCC4)CC3)c3c(N)ncnc3n2C)c(C)c1` (single isomer, unassigned) [Example 1484], the half-maximal inhibitory concentration (IC50) in assay [1] and in assay [2] was 1000 to 100000 nM each time.

With `C=C(C)C(=O)Nc1cc(C)c(-c2c(C3=CC[C@H](C(=O)N4CCCC4)CC3)c3c(N)ncnc3n2C)c(C)c1` (single isomer, unassigned) [Example 1486], the IC50 in assay [1] and in assay [2] was 1000 to 100000 nM each time.

Regarding `C=CC(=O)N1CCC(c2c(-c3ccc(N4CCCC4=O)nc3)c3c(N)ncnc3n2C)C1` (stereo not drawn) [Example 798], the IC50 in assay [1] was 1000 to 100000 nM; in assay [2] it was 250 to 1000 nM.

For `C=CC(=O)N1CCC(c2c(-c3ccc(CC4CCCC4)cc3)c3c(N)ncnc3n2C)C1` (stereo not drawn) [Example 799], the IC50 in assay [1] and in assay [2] was 250 to 1000 nM in each case.

`C=CC(=O)N1CCC(c2c(-c3ccc(N4CCCC4)c(C(F)(F)F)c3)c3c(N)ncnc3n2C)C1` (stereo not drawn) [Example 800]: the half-maximal inhibitory concentration (IC50) in assay [1] is at most 100 nM; in assay [2], below 100 nM.

For the compound `C=C(C)C(=O)Nc1ccc(-c2sc3ncnc(N)c3c2-c2ccc(Oc3cccc(C)n3)cc2)cc1` [Example 801], the concentration for half-maximal inhibition (IC50) is at most 100 nM in assay [1] and below 100 nM in assay [2].

As to `C=C(C)C(=O)Nc1ccc(-c2oc3ncnc(N)c3c2-c2ccc(Oc3cccc(C)n3)cc2)cc1` [Example 802], the IC50 in assay [1] and in assay [2] was 1000 to 100000 nM in each case.

In the case of `C=CC(=O)N1CCC(c2c(-c3ccc(N4CCNC4=O)cc3)c3c(N)ncnc3n2C)C1` (stereo not drawn) [Example 803], the concentration for half-maximal inhibition (IC50) in assay [1] and in assay [2] was 1000 to 100000 nM throughout.

Regarding `C=CC(=O)N1CCC(c2c(-c3ccc(OC4CC4)nc3)c3c(N)ncnc3n2C)C1` (stereo not drawn) [Example 804], the values for the concentration for half-maximal inhibition (IC50) in assay [1] and in assay [2] were 1000 to 100000 nM and 100 to 250 nM, respectively.

As to `C=CC(=O)N1CCC(c2c(-c3ccc(N4CCN(C)C4=O)cc3)c3c(N)ncnc3n2C)C1` (stereo not drawn) [Example 805], the results for the IC50 in assay [1] and in assay [2] were 250 to 1000 nM and 1000 to 100000 nM, respectively.

Regarding `C=CC(=O)N1C[C@H](c2c(-c3ccc(Oc4cccc(C)n4)cc3)c3c(N)ncnc3n2C)[C@@H](O)C1` [Example 806], the half-inhibitory concentration (IC50) in assay [1] is 100 to 250 nM; in assay [2], below 100 nM.

As for `C=CC(=O)N1C[C@@H](O)[C@@H](c2c(-c3ccc(Oc4cccc(C)n4)cc3)c3c(N)ncnc3n2C)C1` [Example 807], the IC50 in assay [1] and in assay [2] was 250 to 1000 nM each time.

As for `C=C(C)C(=O)Nc1ccc(-c2c(-c3ccc(Oc4cccc(C)n4)cc3)c3c(N)ncnn3c2CO)cc1` [Example 808], the concentration for half-maximal inhibition (IC50) in assay [1] and in assay [2] was 100 to 250 nM in each case.

With `C=CC(=O)NC1CCC(c2c(-c3ccc(Oc4cccc(C)n4)cc3)c3c(N)ncnc3n2C)C1` (stereo not drawn) [Example 810], the IC50 in assay [1] was at most 100 nM; in assay [2], below 100 nM.

Consider `C=CC(=O)N1CCC(c2c(-c3ccc(-n4cc(C)cn4)cc3)c3c(N)ncnc3n2C)C1` (stereo not drawn) [Example 811], for which the 50% inhibitory concentration (IC50) in assay [1] is 250 to 1000 nM; in assay [2], 100 to 250 nM.

On to `C=CC(=O)N1C2COCC1C(c1c(-c3ccc(Oc4cccc(C)n4)cc3)c3c(N)ncnc3n1C)C2` (stereo not drawn) [Example 812], for which the IC50 in assay [1] was at most 100 nM; in assay [2], below 100 nM.

`C=CC(=O)N1CC(F)C(c2c(-c3ccc(Oc4cccc(C)n4)cc3)c3c(N)ncnc3n2C)C1` (stereo not drawn) [Example 813]: the IC50 in assay [1] and in assay [2] was 250 to 1000 nM each time.

In the case of `C=CC(=O)N1CC(CO)C(c2c(-c3ccc(Oc4cccc(C)n4)cc3)c3c(N)ncnc3n2C)C1` (stereo not drawn) [Example 814], the IC50 in assay [1] was at most 100 nM; in assay [2], below 100 nM.

The values above are taken from patent US11780845B2 (Relay Therapeutics, Inc., priority 2019, dated 2023).
